Assay results taken from patent publication US20040254125A1, “Anthelmintic composition” (priority 2001, published 2004).

Tests used:
Type in all cases: in vivo
mites = assay: Spot-on Test (Extermination Test on Mites) in dogs; settings: dogs naturally infected; spot-on to back of neck, 5 mg/kg of Reference Example 1 (10 g : 3.8 g fipronil per 100 ml); examined three days after administration
Experimental: Compound (10 g) of Reference Example 1 and fipronil (3.8 g) were mixed. This mixture was dissolved in a mixed solvent (9:1) of benzyl alcohol and propylene carbonate so as to be a total volume of 100 ml, and 0.05% of BHT was further added to prepare a formulation for the spot-on test. Further, as a control, formulations were prepared by using each of the compound of Reference Example 1 solo and fipronil solo to carry out the test.
The above-described formulation for spot-on test was dropped to the back part of the neck of each dog (two dogs in each test location) naturally infected with mites at a dose of 5 mg/kg of the compound in Reference Example 1. In each dog, infection with mites was examined three days after the dropwise administration.

Toxocara canis = assay: Oral Test in dogs naturally infected with Toxocara canis; settings: single oral dose in gelatine capsule (Reference Example 1 5 mg/kg, praziquantel 1.25 mg/kg), postmortem on 10th day
Experimental: (§1) Compound (5 mg/kg) of Reference Example 1 and praziquantel (1.25 mg/kg) were encapsulated into gelatine to a predetermined amount to prepare a formulation for Oral Test. Incidentally, formulations were prepared as controls by using each of the compound of Reference Example 1 solo and fipronil solo to carry out the test.
(§2) The formulation was administered orally once to dogs (two dogs in each test location) naturally infected with Dipylidium caninum and Toxocara canis. Incidentally, the infection with Dipylidium caninum was confirmed by the excretion of proglottid of Dipylidium caninum into faeces three days before administration of drugs. The infection with Toxocara canis was confirmed by the excretion of eggs of Toxocara canis into faeces immediately before administration of drugs. On the 10th day after the administration of drugs, the dogs were subjected to postmortem to count the number of surviving Dipylidium caninum and Toxocara canis.

Dipylidium caninum = assay: Oral Test in dogs naturally infected with Dipylidium caninum; settings: single oral dose in gelatine capsule (Reference Example 1 5 mg/kg, praziquantel 1.25 mg/kg), postmortem on 10th day
Experimental: as §1, §2

Molecule | treating infection with mites (mites) | exterminating Toxocara canis (number of surviving parasites at postmortem) (Toxocara canis) | exterminating Dipylidium caninum (number of surviving parasites at postmortem) (Dipylidium caninum)
N#Cc1nn(-c2c(Cl)cc(C(F)(F)F)cc2Cl)c(N)c1[S+]([O-])C(F)(F)F (stereo not drawn) [fipronil] | ineffective |  | 
O=C(C1CCCCC1)N1CC(=O)N2CCc3ccccc3C2C1 (stereo not drawn) [praziquantels, praziquantel] |  | ineffective | effective
13-[1-(4-methoxyacetylaminophenyl) cyclopentanecarbonyloxy]-5-hydroxy-milbemycin A4 [Reference Example 1] | ineffective | effective | ineffective
